Tests used:
[1] = after absorption; cited from earlier work
[2] = after a loading dose (600 mg); cited from earlier work
platelet aggregation = assay: Antiaggregatory action in rats: ex vivo ADP-induced platelet aggregation in PRP, turbidimetric aggregometry; design: species or system Male Sprague-Dawley rats; settings: rat, oral
Description: Assay 2: Antiaggregatory Action in Rats
Male Sprague-Dawley rats were used for ex vivo platelet aggregation experiments. After oral administrated with (clopidogrel, exemplary compounds provided herein and vehicle (control)) to rats, blood was collected via jugular vein at 0.5 hour, 1 hour and 2 hour time points, using 3.8% (w/v) sodium citrate solution as an anticoagulant ( 1/9 volume of whole blood). Blood samples with citrate were centrifuged at a low speed of 1000 rmp for 5 min to obtain platelet-rich plasma (PRP). After separation of PRP, the remained blood was further centrifuged at a high speed of 3000 rmp for 10 min to obtain platelet-poor plasma (PPP). The number of platelets in PRP was measured by hematology analyzer (Siemens, ADVIA2120), and adjusted to 4×10^8/mL with PPP.
Platelet aggregation was determined using turbidimetric aggregometry method by an automatic platelet aggregometer (PRECIL LBY-NJ4). The aggregometer was primarily warmed up to 37° C., and PRP (290 μL) sample was added to the cuvette and set in the automatic platelet aggregometer. After a 5 min pre-incubation, calibrated the aggregometer using PPP to representing 100% aggregation and PRP to representing 0% aggregation. Finally, a volume of […] ADP solution (final concentration 10 μM) was added to PRP sample to initial platelet aggregation. Platelet aggregation was monitored for 5 min and maximum platelet aggregation (%) was reported within the duration. Antiaggregatory action of test compounds was expressed as inhibition (%) which determined by the relation: Inhibition (%)=(maximum platelet aggregation (%) of control−maximum platelet aggregation (%) of test compound)/(maximum platelet aggregation (%) of control)*100

[3] = Pharmacokinetic in rats: concentration of the thiol active metabolite in plasma; type: in vivo, Male Sprague-Dawley rats; settings: for peak concentration of the thiol active metabolite compared with clopidogrel: rat plasma; for release of the active metabolite compared with clopidogrel: rat
Description: Assay 1: Pharmacokinetic in Rats
Male Sprague-Dawley rats were used to conduct pharmacokinetic experiment.
Test compounds (clopidogrel and exemplary compounds provided herein) was administrated orally or intravenously to rat under fast condition. Blood samples were collected via jugular vein at 5 min, 15 min, 30 min, 60 min and 120 min time points with EDTA-K2 (anticoagulant), 3′-methoxyphenacyl bromide (MPBr, derivatization reagent) and phenylmethylsulfonyl fluoride (PMSF, stabilizer). Plasma samples were then harvested by centrifuging at 1500 g for 10 min under 2-8° C. and stored at −80° C. after separation. Plasma samples were loaded to a LC-MS/MS instrument after extraction to determine the concentration of the thiol active metabolite.

COC(=O)[C@H](c1ccccc1Cl)N1CCc2sccc2C1 [clopidogrel, Clopidogrel]
fraction hydrolysed by esterases into an inactive carboxylic acid [1]: 85% | fraction undergoing two-step oxidation via hepatic cytochrome P450 isoenzymes, mainly CYP2C19 [1]: 15% | onset of action [2]: 2 h | inhibition at 10 mg/kg (platelet aggregation; Platelet, 10 mg/kg, ADP 10 μM, read-out: maximum inhibition of platelet aggregation): ~45% | time after administration to maximum inhibition of platelet aggregation (platelet aggregation; 10 mg/kg): about 120 minutes

COC(=O)[C@H](c1ccccc1Cl)N1CCC(SCOC(=O)OC(C)C)/C(=C/C(=O)O)C1 (stereo partly drawn) [compound 1a]
peak concentration of the thiol active metabolite compared with clopidogrel ([3]; oral, dose level 10 mg/kg): significantly higher than that for clopidogrel | release of the active metabolite compared with clopidogrel ([3]; oral, dose level 10 mg/kg): faster and more efficient release of the active metabolite than clopidogrel

COC(=O)[C@H](c1ccccc1Cl)N1CCC(SCOC(=O)OC(C)C)/C(=C\C(=O)O)C1 (stereo partly drawn) [compound 1b]
peak concentration of the thiol active metabolite compared with clopidogrel ([3]; oral, dose level 10 mg/kg): significantly higher than that for clopidogrel | release of the active metabolite compared with clopidogrel ([3]; oral, dose level 10 mg/kg): faster and more efficient release of the active metabolite than clopidogrel | inhibition at 2 mg/kg (platelet aggregation; Platelet, 2 mg/kg, ADP 10 μM, read-out: maximum inhibition of platelet aggregation): ~45% | time after administration to maximum inhibition of platelet aggregation (platelet aggregation; 2 mg/kg): 60 min | onset of action and potency compared with clopidogrel (platelet aggregation; 2 mg/kg vs clopidogrel 10 mg/kg): much faster onset of action and much higher potency than clopidogrel

CCOC(=O)/C=C1\CN([C@H](C(=O)OC)c2ccccc2Cl)CCC1SCOC(=O)OC(C)C (stereo partly drawn) [compound 2a]
peak concentration of the thiol active metabolite compared with clopidogrel ([3]; oral, dose level 10 mg/kg): significantly higher than that for clopidogrel | release of the active metabolite compared with clopidogrel ([3]; oral, dose level 10 mg/kg): faster and more efficient release of the active metabolite than clopidogrel

COC(=O)OCSC1CCN([C@H](C(=O)OC)c2ccccc2Cl)C/C1=C/C(=O)O (stereo partly drawn) [compound 3]
release of the active metabolite compared with clopidogrel ([3]; oral 2 mg/kg and intravenous 1 mg/kg vs clopidogrel oral 10 mg/kg): faster and more efficient release of the active metabolite than clopidogrel

Reference: US11834413B2, “Antiplatelet drugs and uses thereof” (SHANGHAI CUREGENE PHARMACEUTICAL CO., LTD., priority 2020, dated 2023)
